# Earlier results as cited in patent US20180187029A1, “COMPOSITION FOR FORMING HIGH RELEASE AND LOW FRICTION FUNCTIONAL COATINGS” (WHITFORD CORPORATION, priority 2015, published 2018).
# Details: for Density / Vapor pressure / Viscosity: 20° C.; for Surface tension: 23° C.
SMILES,Density,Vapor pressure,Viscosity,Surface tension
CN1CCCC1=O [N-methyl-2-pyrrolidone],1.03 g/Cm3,0.04 kPa,1.8 mPa · s,38.6 mN/m
"COCCC(=O)N(C)C [3-methoxy-N,N-dimethylpropanamide]",0.99 g/Cm3,0.016 kPa,2.3 mPa · s,34.2 mN/m
